From patent US20030040478A1, “Chemotherapy treatment” (priority 2002, published 2003)

Tests used:
[1] = tested on: irinotecan-treated mice; settings: mouse, in vivo
Experimental: (§1) FIG. 2. (A) Prevalence of positive bacterial aerobic cultures from mesenteric, splenic, and liver homogenates and whole blood. Groups of mice (n=20 mice for each treatment group) were pretreated for 3 days with either saline or h[Gly2]-GLP-2 as shown in FIG. 1A and euthanized 96 hrs after commencing irinotecan treatment (two injections of 280 mg/kg per dose). *=P<0.05, saline versus h[Gly2]-GLP-2 treated mice after irinotecan. […] (B) The leukocyte count in saline- and h[Gly2]-GLP-2 treated control and irinotecan-treated mice. + and *=p<0.05 for saline- and h[Gly2]-GLP-2-treated groups versus irinotecan-treated mice. #=P<0.05, irinotecan-treated mice pretreated with saline versus h[Gly2]-GLP-2.
Microbiology: At various time points following chemotherapy administration, aliquots of whole blood and tissue homogenates obtained using sterile technique were plated on blood agar plates and incubated at 37° C. for 48 hrs.

[2] = tested on: rodents with indomethacin-induced intestinal injury; settings: Boushey et al. 1999, cited from earlier work
[3] = tested on: irinotecan-treated mice; experiment: Leukocyte count after irinotecan; type: in vivo, mouse; settings: mice following irinotecan treatment
Experimental: as §1
Leukocyte Count: Whole blood samples were collected in venipuncture tubes containing EDTA and analyzed using an automated whole blood sorter calibrated for mouse samples. Blood smears were performed on all samples to confirm the automated analysis.

[4] = tested on: irinotecan-treated CD1 mice, jejunum and colon crypts; experiment: Crypt survival and cell number per hemi-crypt (histology) after irinotecan; type: in vivo, mouse; settings: small and large intestine following irinotecan; FIGS. 3A-D
Experimental: FIG. 3. Mean crypt survival (A and C) and mean cell number per hemi-crypt (B and D) from the midjejunum (A and B) and colon (C and D) of control and irinotecan-treated CD1 mice administered either saline (vehicle) or h[Gly2]-GLP-2 as a 3 day pretreatment regimen. Dotted lines represent line of best fit for data shown between 60 and 96 h. Five mice per treatment group were euthanized for analysis commencing immediately prior to the first of two injections of irinotecan (280 mg/kg per dose) and at 12 hr intervals up to 96 hrs. Crypt survival was measured along the entire bowel circumference, and the mean cell number per hemi-crypt determined in 50 consecutive intact crypts per animal. *=P<0.05, **=P<0.001, saline versus h[Gly2]-GLP-2 treated mice.
Histological Analysis: Four- to six-micrometer histological cross sections from the intestine of each mouse were cut and stained with hematoxylin and eosin and micrometry was performed as described. Boushey, R. P. et al., Am. J. Physiol. 277: E937-E947, 1999. The number of cells per hemi-crypt column and the number of surviving crypts per circumference were measured in both the small and large intestine at 12 h intervals (n=5 mice per time point) following irinotecan administration as previously described. Wright, N. A. et al., Cell Tissue Kinet. 22: 425-50, 1989; Withers, H. R. et al., Int. J. Radiat. […] All slides were scored in a blinded fashion.

[5] = mice following indomethacin-induced intestinal injury
[6] = rodents with indomethacin-induced intestinal injury

CC[C@H](C)[C@H](NC(=O)[C@H](Cc1ccccc1)NC(=O)[C@H](CC(=O)O)NC(=O)[C@H](CCCNC(=N)N)NC(=O)[C@H](C)NC(=O)[C@H](C)NC(=O)[C@H](CC(C)C)NC(=O)[C@H](CC(N)=O)NC(=O)[C@H](CC(=O)O)NC(=O)[C@H](CC(C)C)NC(=O)[C@@H](NC(=O)[C@@H](NC(=O)[C@H](CC(N)=O)NC(=O)[C@H](CCSC)NC(=O)[C@H](CCC(=O)O)NC(=O)[C@H](CC(=O)O)NC(=O)[C@H](CO)NC(=O)[C@H](Cc1ccccc1)NC(=O)[C@H](CO)NC(=O)CNC(=O)[C@H](CC(=O)O)NC(=O)CNC(=O)[C@@H](N)Cc1c[nH]cn1)[C@@H](C)O)[C@@H](C)CC)C(=O)N[C@@H](CC(N)=O)C(=O)N[C@@H](Cc1c[nH]c2ccccc12)C(=O)N[C@@H](CC(C)C)C(=O)N[C@H](C(=O)N[C@@H](CCC(N)=O)C(=O)N[C@H](C(=O)N[C@@H](CCCCN)C(=O)N[C@H](C(=O)N[C@H](C(=O)N[C@@H](CC(=O)O)C(=O)O)[C@@H](C)O)[C@@H](C)CC)[C@@H](C)O)[C@@H](C)CC [h[Gly2]-GLP-2]
bacterial colonies in homogenates [1]: No bacterial colonies were detected

GLP-2: 33 amino acid product of the glucagon gene, an intestinotrophic peptide secreted by enteroendocrine cells (HADGSFSDEMNTILDNLAARDFINWLIQTKITD; Glucagon-like peptide 2; UniProt P01275 146-178, looked up)
bacterial infection in the liver and spleen [2, 5]: decreased bacterial infection in the liver and spleen | circulating bacteremia [2, 5]: markedly reduced circulating bacteremia | epithelial damage [2, 6]: reduces epithelial damage | survival [2, 6]: improves survival

CCc1c2c(nc3ccc(OC(=O)N4CCC(N5CCCCC5)CC4)cc13)-c1cc3c(c(=O)n1C2)COC(=O)[C@]3(O)CC [irinotecan, 7-ethyl-10-[4-(1-piperidino)-1-piperidino] carbonyloxycamptothecin]
leukocyte count after irinotecan treatment [3]: significant leukopenia | number of crypts and number of cells within each crypt [4]: significant reduction in both the number of crypts and in the number of cells within each crypt
